What was measured:
[1] = biological target: PhnI (C-P lyase nucleosidase) (Escherichia coli, UniProt P16687); type: biochemical
[2] = tested on: Nc1ncnc2c1ncn2[C@@H]1O[C@H](COP(=O)(O)OP(=O)(O)OP(=O)(O)O)[C@@H](O)[C@H]1O; assay: steady-state kinetics of the nucleosidase reaction; type: biochemical, Escherichia coli; details: Mg2+

Sequence of PhnI (C-P lyase nucleosidase) (P16687 whole entry): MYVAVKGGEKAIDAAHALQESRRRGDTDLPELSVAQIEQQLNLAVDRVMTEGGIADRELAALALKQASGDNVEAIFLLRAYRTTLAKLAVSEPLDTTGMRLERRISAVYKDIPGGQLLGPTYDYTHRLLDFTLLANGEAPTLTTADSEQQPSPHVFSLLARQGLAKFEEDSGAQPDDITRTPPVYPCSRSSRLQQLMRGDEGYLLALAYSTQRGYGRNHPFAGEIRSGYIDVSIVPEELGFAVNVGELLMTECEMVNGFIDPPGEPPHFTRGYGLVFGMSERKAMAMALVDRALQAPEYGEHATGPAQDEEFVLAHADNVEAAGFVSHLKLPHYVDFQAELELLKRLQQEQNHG

Row | Compound | Kd [1] [nM] | Km [2] [µM]
1 | Nc1ncnc2c([C@@H]3N[C@H](COP(=O)(O)OP(=O)(O)OP(=O)(O)O)[C@@H](O)[C@H]3O)c[nH]c12 [ImmA-TP, Immucillin-A triphosphate] | 20 ± 4 | 
2 | PhnI (C-P lyase nucleosidase) (Escherichia coli K-12) |  | 95 ± 12

Source: PMC3838859 (Biochemistry, 2013)
